This is an account of results in PubChem BioAssay (NCI).

SMILES strings stand for the structures. Values joined by “and” are separate entries in the source; they are usually repeats but may differ in a detail not shown here. Equal entries are not always repeated.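 Cultured in 96-well plates, cells were exposed to test compound for 48 hours across five concentrations. GI50 = concentration required for 50% inhibition of growth. At the TGI there is no net growth.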 Some results are limits rather than exact numbers.

The test system of the test is MDA-MB-468 breast. The test can be described thus: NCI tumour cell line growth inhibition, 48 h.

As to `COc1ccc(C2=NN(C=O)C(c3cccc(Nc4ccnc5cc(Cl)ccc45)c3)C2)cc1` (centres undefined), the GI50 is 417 nM and the TGI is 3480 nM.
For `CCn1c(-c2nonc2N)nc2c(C#CC(C)(C)O)nc(OCCNC)cc21`, in that order: 3320 nM and 10400 nM.
For `COc1ccc2[nH]c(O)c(C(=Nc3ccc(N(C)C(=O)CN4CCN(C)CC4)cc3)c3ccccc3)c2c1`, the GI50 is 2600 nM and the TGI was 6130 nM.
The matching figures for `COc1cc(-c2n/c(=C\c3c(O)[nH]c4ccc(Cl)cc34)cc3c2=Nc2ccccc2-3)ccc1F`: 1810 nM and 3810 nM.
For the compound `CCOc1cccc(/C=N/NC(=O)C(=O)Nc2cccc(C(F)(F)F)c2)c1O`, the GI50 is 2050 nM and the TGI was 15800 nM.
For `CCCOc1ccc2nc(NC(=O)OC)[nH]c2c1`, in that order: 274 nM and above 100000 nM.
Turning to `C=CC(=O)Nc1cc2c(Nc3ccc(F)c(Cl)c3)ncnc2cc1OCCCN1CCOCC1`, the GI50 was < 10 nM and 2.38 nM; the TGI was 194 nM and 101 nM.
Regarding `CC[PH+](CC)CC.O=COC1OC([S-])C(OC=O)C(OC=O)C1OC=O.[Au+]` (centres undefined), the GI50 was 659 nM and the TGI is 2310 nM.
The matching figures for `C/C=C1\NC(=O)[C@H]2CSSCCC=C[C@H](CC(=O)N[C@H](C(C)C)C(=O)N2)OC(=O)[C@H](C(C)C)NC1=O`: below 10 nM and below 12.2 nM.
The matching figures for `Cc1cc(Cl)ccc1Nc1nc(C(F)(F)F)ccc1C(=O)N/N=C/c1ccc([N+](=O)[O-])cc1`: 1160 nM and 5160 nM.
The matching figures for `CNCCn1c(=O)c2cc(OC)c(OC)cc2c2ccc3cc4c(cc3c21)OCO4`: 74.3 nM and 244 nM.
In the case of `COc1cc2c(=O)n(CCN)c3c4cc5c(cc4ccc3c2cc1OC)OCO5`, the GI50 was 219 nM and the TGI stood at 881 nM.
For `C=C1C(=O)O[C@H]2[C@H]1CC/C(COC(=O)c1cc3cc(Cl)ccc3[nH]1)=C\CC[C@@]1(C)O[C@@H]21`, in that order: 1890 nM and 4070 nM.
The matching figures for `Cc1nc2sccn2c1-c1csc(Nc2cccc(Cl)c2C)n1`: 1050 nM and 11000 nM.
For `COc1ccc2cc(-c3c(-c4ccncc4)nc(-c4ccc(S(C)(=O)=O)cc4C)n3C)ccc2c1`, in that order: 3020 nM and 14500 nM.
Consider `COc1ccc(Cn2cc3c(c2)-c2oncc2CC3)cc1`, for which the GI50 was 3200 nM and the TGI was above 100000 nM.
The matching figures for `Cc1cc2c(cc1C)N(C(=O)CCl)CCN2C(=O)CCl`: 199 nM and 457 nM.
For `CCCCCCCCCCCCCCCCCC1=NCCN1C(=O)OCCO`, in that order: 1680 nM and 3210 nM.
The matching figures for `Cc1c(C(=O)NCCN2CCOCC2)cn2ncnc(Oc3ccc(NC(=O)Nc4ccc(Cl)c(C(F)(F)F)c4)cc3)c12`: 1520 nM and 3450 nM.
As for `NC(=O)c1cc2c3ccccc3ccn2c1-c1ccccc1`, the GI50 was 273 nM and the TGI was 15200 nM.
For `CN1C(=O)N(C)C2C1NN=c1s/c(=C\c3ccc(F)cc3)c(=O)n12` (centres undefined), in that order: 366 nM and 4070 nM.
The matching figures for `CC1(C)CC[C@]23CC[C@]4(C)[C@H](CC[C@@H]5[C@@]6(C)CC[C@H](N)C(C)(C)[C@@H]6CC[C@]54C)[C@H]2[C@H]1OC3`: 1700 nM and 3250 nM.
For `COC(=O)C1CCc2sc3ncnc(Nc4cn[nH]c4C(=O)Nc4ccc(CN5CCN(C)CC5)cc4)c3c21` (centres undefined), in that order: 1420 nM and above 100000 nM.
For `Cc1sc2nc3c4ccccc4c(NCCCN(C)C)nn3c(=O)c2c1C`, the GI50 is 1270 nM and the TGI was 2800 nM.
As for `COc1cc(C(=O)Nc2cc3c(cc2Oc2cc(C)cc(C)c2)C(=O)N(C)[C@@H](CC(=O)N(C)O)C(=O)N3)c(Br)c(OC)c1OC`, the GI50 was below 3.33 nM and the TGI was below 3.33 nM.
Consider `COc1ccc(N2C(=O)[C@H]3CC(C)c4c([nH]c5ccccc45)[C@H]3C2=O)cc1` (some centres undefined), for which the GI50 is 3630 nM and the TGI was found to be 54100 nM.
For `COc1ccccc1/C=C/C(=O)c1ccccc1`, the GI50 is 7230 nM and the TGI came out at 28000 nM.
The matching figures for `CCOc1cc(/C=N\Nc2nnc(C)n2N)c(C)cc1N(CCCl)CCCl`: 321 nM and 2230 nM.
For `Fc1cc2[nH]ncc2c2c3c(c(-c4cn[nH]c4C(F)(F)F)nc12)C1CCC3C1` (centres undefined), in that order: 1100 nM and 3980 nM.
The matching figures for `COc1cc(/C=C2\C(=O)Nc3ccc(N(C)C)cc32)cc(OC)c1OC`: 3250 nM and 27200 nM.
As for `COc1cc2ncnc(Nc3ccc(F)c(Cl)c3)c2cc1NC(=O)/C=C/CN1CCCCC1`, the GI50 was below 10 nM and the TGI came out at 5.38 nM.
The matching figures for `COc1ccc(-c2ccc(-c3ccc(C(=N)N)cn3)o2)cc1`: 2040 nM and 5690 nM.
With `CN1CCN(Cc2ccc(NC(=O)c3cncc(C#Cc4cnc5ccc(NCCO)nn45)c3)cc2C(F)(F)F)CC1`, the GI50 is 227 nM and the TGI is 1020 nM.
The matching figures for `Cn1c2c(c3ccc(Cl)c(Cl)c31)C(C#N)C1(CCNCC1)NC2=O` (centres undefined): 1630 nM and 4290 nM.
For `CCn1c2ccc(O)cc2c2c(C)c3c[n+](C)ccc3c(C)c21`, in that order: 284 nM and 2600 nM.
As for `O=C(O)c1ccc2c(c1)CCCC(c1ccc(Cl)cc1Cl)=C2c1ccc(O[C@H]2CCN(CCCF)C2)cc1`, the GI50 is 12000 nM and the TGI worked out at 26900 nM.
The matching figures for `Cc1ccc(-c2csc(NC(=O)CN3CCN(c4cc5c(cc4F)c(=O)c(C(=O)O)cn5C4CC4)CC3)n2)cc1`: 697 nM and 6530 nM.
